# Data published in patent US7514448B2, “Azaindoles useful as inhibitors of rock and other protein kinases” (Vertex Pharmaceuticals Incorporated, priority 2004, dated 2009).
# Read-outs that look alike come from different tables or passages of the source.
# What was measured:
# Format in all cases: biochemical
# [1] = biological target: ROCK I (AA 6-553) (Homo sapiens, UniProt Q13464); assay: ROCK inhibition assay, coupled enzyme system ("Enzyme"); details: enzyme-linked assay; average Ki if more than one determined
# Protocol: Reactions were carried out in a solution containing 100 mM HEPES (pH 7.5), 10 mM MgCl2, 25 mM NaCl, 2 mM DTT and 1.5% DMSO.
# (§1) If more than one value of Ki has been determined, the average Ki is indicated. If no value is indicated, then the Ki was not determined.
# [2] = biological target: PKA (Homo sapiens, UniProt P17612); assay: PKA inhibition assay, coupled enzyme; details: average Ki if more than one determined
# Protocol: Compounds were screened for their ability to inhibit PKA using a standard coupled enzyme assay (Fox et al., Protein Sci, 1998, 7, 2249). Assays were carried out in a mixture of 100 mM HEPES (pH 7.5), 10 mM MgCl2, 25 mM NaCl, 1 mM DTT and 3% DMSO. Final substrate concentrations in the assay were 50 μM ATP (Sigma Chemicals) and 80 μM peptide (Kemptide, American Peptide, Sunnyvale, Calif.). Assays were carried out at 30° C. and 18 nM PKA. Final concentrations of the components of the coupled enzyme system were 2.5 mM phosphoenolpyruvate, 300 μM NADH, 30 μg/ml pyruvate kinase and 10 μg/ml lactate dehydrogenase.
# An assay stock buffer solution was prepared containing all of the reagents listed above, with the exception of ATP, and the test compound of the present invention. […] The plate was preincubated for 10 minutes at 30° C. and the reaction initiated by addition of 5 μl of ATP (final concentration 50 μM). Initial reaction rates were determined with a Molecular Devices SpectraMax Plus plate reader over a 15 minute time course. IC50 and Ki data were calculated from non-linear regression analysis using the Prism software package (GraphPad Prism version 3.0a for Macintosh, GraphPad Software, San Diego Calif., USA).
# [3] = biological target: ROCK (Homo sapiens, UniProt Q13464); assay: ROCK radioactive assay ("33P")
# Excerpt: as §1
# [4] = radioactive assay, average Ki if more than one determined, read-out: ROCK 33P Ki
# Chain of ROCK (Q13464 whole entry): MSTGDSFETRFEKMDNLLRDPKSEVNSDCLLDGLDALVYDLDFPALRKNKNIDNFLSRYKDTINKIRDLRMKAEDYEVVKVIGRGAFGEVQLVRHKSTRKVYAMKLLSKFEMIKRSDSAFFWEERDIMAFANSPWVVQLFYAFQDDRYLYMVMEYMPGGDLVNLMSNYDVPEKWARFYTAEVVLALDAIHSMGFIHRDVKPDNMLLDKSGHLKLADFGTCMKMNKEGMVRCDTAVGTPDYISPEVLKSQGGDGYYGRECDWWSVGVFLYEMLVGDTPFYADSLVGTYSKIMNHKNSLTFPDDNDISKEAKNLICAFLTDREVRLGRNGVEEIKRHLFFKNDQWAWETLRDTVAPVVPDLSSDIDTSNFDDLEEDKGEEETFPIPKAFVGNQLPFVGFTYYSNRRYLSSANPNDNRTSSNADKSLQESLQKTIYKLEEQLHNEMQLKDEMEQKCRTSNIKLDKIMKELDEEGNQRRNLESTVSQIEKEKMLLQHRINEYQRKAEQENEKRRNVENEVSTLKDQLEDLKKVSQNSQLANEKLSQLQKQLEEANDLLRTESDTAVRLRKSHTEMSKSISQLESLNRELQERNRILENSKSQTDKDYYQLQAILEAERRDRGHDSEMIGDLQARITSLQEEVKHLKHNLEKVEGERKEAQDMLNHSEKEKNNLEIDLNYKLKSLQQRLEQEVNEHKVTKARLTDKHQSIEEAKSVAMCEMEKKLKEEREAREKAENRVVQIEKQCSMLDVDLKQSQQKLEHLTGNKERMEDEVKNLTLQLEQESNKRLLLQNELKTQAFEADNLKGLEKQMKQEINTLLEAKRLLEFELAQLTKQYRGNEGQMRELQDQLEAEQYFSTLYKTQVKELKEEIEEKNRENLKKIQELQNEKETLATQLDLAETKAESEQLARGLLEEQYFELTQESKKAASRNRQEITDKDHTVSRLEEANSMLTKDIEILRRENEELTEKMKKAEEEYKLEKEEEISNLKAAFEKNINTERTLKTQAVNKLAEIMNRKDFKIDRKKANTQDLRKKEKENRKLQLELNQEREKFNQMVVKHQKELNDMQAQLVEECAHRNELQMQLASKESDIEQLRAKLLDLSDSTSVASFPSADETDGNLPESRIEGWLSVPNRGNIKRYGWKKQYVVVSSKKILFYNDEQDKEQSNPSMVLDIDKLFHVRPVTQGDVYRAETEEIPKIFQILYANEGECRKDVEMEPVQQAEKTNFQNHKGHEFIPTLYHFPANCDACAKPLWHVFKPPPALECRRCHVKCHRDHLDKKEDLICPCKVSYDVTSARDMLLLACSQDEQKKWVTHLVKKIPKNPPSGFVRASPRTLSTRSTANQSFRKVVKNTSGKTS
# Chain of ROCK I (AA 6-553) (Q13464 6-553, species assumed): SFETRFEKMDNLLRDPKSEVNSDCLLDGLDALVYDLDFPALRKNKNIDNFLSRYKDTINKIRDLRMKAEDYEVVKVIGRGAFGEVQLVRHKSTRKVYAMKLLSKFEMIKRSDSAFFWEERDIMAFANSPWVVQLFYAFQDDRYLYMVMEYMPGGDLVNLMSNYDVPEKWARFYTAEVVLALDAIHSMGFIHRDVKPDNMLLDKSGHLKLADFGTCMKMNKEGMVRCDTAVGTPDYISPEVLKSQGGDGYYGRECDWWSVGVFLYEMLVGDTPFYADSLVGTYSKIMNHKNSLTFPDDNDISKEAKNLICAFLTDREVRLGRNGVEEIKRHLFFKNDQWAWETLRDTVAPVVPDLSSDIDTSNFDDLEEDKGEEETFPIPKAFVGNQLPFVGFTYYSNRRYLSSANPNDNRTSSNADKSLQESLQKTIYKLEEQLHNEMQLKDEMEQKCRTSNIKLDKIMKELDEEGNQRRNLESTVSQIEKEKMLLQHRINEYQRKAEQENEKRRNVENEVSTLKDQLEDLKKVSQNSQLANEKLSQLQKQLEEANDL
SMILES,Ki [1] [µM],Ki [2] [µM],"Ki [3, 4] [µM]",Ki [3] [µM]
O=C(Cc1ccccc1F)Nc1nc(-c2c[nH]c3ncccc23)cs1 [I-3],< 0.5,< 0.5,–,–
O=C(Cc1ccc(F)cc1)Nc1nc(-c2c[nH]c3ncccc23)cs1 [I-4],< 0.5,< 0.5,–,–
O=C(Cc1ccc(F)cc1F)Nc1nc(-c2c[nH]c3ncccc23)cs1 [I-6],< 0.5,< 0.5,–,–
O=C(CCc1ccccc1)Nc1nc(-c2c[nH]c3ncccc23)cs1 [I-7],< 0.5,< 0.5,–,–
CC(C)(C)OC(=O)N1CCC(CCCOc2cccc(CC(=O)Nc3nc(-c4c[nH]c5ncccc45)cs3)c2)CC1 [I-9],< 0.5,0.5 to 5,–,–
CS(=O)(=O)Oc1cccc(CC(=O)Nc2nc(-c3c[nH]c4ncccc34)cs2)c1 [I-10],< 0.5,< 0.5,–,–
O=C(Cc1cc2c(cc1Cl)OCO2)Nc1nc(-c2c[nH]c3ncccc23)cs1 [I-13],< 0.5,< 0.5,–,–
COc1ccc(CC(=O)Nc2nc(-c3c[nH]c4ncccc34)cs2)c(Cl)c1 [I-18],< 0.5,< 0.5,–,–
COc1cccc(CC(=O)Nc2nnc(-c3c[nH]c4ncccc34)s2)c1 [I-21],< 0.5,< 0.5,–,–
O=C(Cc1ccc(F)cc1F)Nc1nnc(-c2c[nH]c3ncccc23)s1 [I-22],< 0.5,< 0.5,–,–
O=C(Cc1ccccc1F)Nc1nnc(-c2c[nH]c3ncccc23)s1 [I-23],< 0.5,< 0.5,–,–
COc1cccc(CNC(=O)c2csc(-c3c[nH]c4ncccc34)n2)c1 [II-21],< 0.5,–,–,–
O=C(Cc1cccc(OCCCC2CCNCC2)c1)Nc1nnc(-c2c[nH]c3ncccc23)s1 [II-22],< 0.5,–,–,–
NCCC(C(=O)Nc1nc(-c2c[nH]c3ncccc23)cs1)c1ccc(F)cc1F (stereo not drawn) [II-191],–,< 0.5,< 0.5,–
NCCC(C(=O)Nc1nc(-c2c[nH]c3ncccc23)cs1)c1ccccc1Cl (stereo not drawn) [II-192],–,< 0.5,< 0.5,–
CN(C)S(=O)(=O)Nc1cccc(CC(=O)Nc2nc(-c3c[nH]c4ncccc34)cs2)c1 [II-193],–,< 0.5,< 0.5,–
NCC(C(=O)Nc1nc(-c2c[nH]c3ncccc23)cs1)c1ccccc1Cl (stereo not drawn) [II-194],–,< 0.5,< 0.5,–
NCC(C(=O)Nc1nc(-c2c[nH]c3ncccc23)cs1)c1cccc(Cl)c1Cl (stereo not drawn) [II-195],–,< 0.5,< 0.5,–
NCC(C(=O)Nc1nc(-c2c[nH]c3ncccc23)cs1)c1ccc(F)cc1Cl (stereo not drawn) [II-196],–,< 0.5,< 0.5,–
c1cnc2[nH]cc(-c3csc(NCCCN4CCOCC4)n3)c2c1 [II-197],–,0.5 to 5,0.5 to 5,–
CN1CCN(CCCNc2nc(-c3c[nH]c4ncccc34)cs2)CC1 [II-198],–,0.5 to 5,0.5 to 5,–

SMILES,Ki [1] [µM],Ki [2] [µM],"Ki [3, 4] [µM]",Ki [3] [µM]
c1coc(CNc2nc(-c3c[nH]c4ncccc34)cs2)c1 [II-199],–,0.5 to 5,< 0.5,–
c1cnc2[nH]cc(-c3csc(NCC4CCCO4)n3)c2c1 (stereo not drawn) [II-200],–,0.5 to 5,0.5 to 5,–
CN1CCN(CCCN(C(=O)Cc2ccccc2)c2nc(-c3c[nH]c4ncccc34)cs2)CC1 [II-201],–,< 0.5,< 0.5,–
COc1cccc(CC(=O)N(CCCN2CCN(C)CC2)c2nc(-c3c[nH]c4ncccc34)cs2)c1 [II-202],–,< 0.5,< 0.5,–
CN1CCN(CCCN(C(=O)Cc2cccc(NS(C)(=O)=O)c2)c2nc(-c3c[nH]c4ncccc34)cs2)CC1 [II-203],–,< 0.5,< 0.5,–
CC(=O)N(CCCN1CCN(C)CC1)c1nc(-c2c[nH]c3ncccc23)cs1 [II-204],–,0.5 to 5,< 0.5,–
O=C(Cc1cccnc1)Nc1nc(-c2c[nH]c3ncccc23)cs1 [II-205],–,< 0.5,< 0.5,–
O=C(Cc1cccnc1)Nc1nc(-c2c[nH]c3ncc(F)cc23)cs1 [II-206],–,< 0.5,< 0.5,–
O=C(Nc1nc(-c2c[nH]c3ncccc23)cs1)[C@@H](O)c1ccccc1 [II-207],–,< 0.5,< 0.5,–
COc1cccc(C(O)C(=O)Nc2nc(-c3c[nH]c4ncccc34)cs2)c1 (stereo not drawn) [II-208],–,< 0.5,< 0.5,–
O=C(Nc1nc(-c2c[nH]c3ncccc23)cs1)C(O)c1ccc(F)cc1F (stereo not drawn) [II-209],–,< 0.5,< 0.5,–
O=C(Nc1nc(-c2c[nH]c3ncccc23)cs1)[C@H](O)c1ccccc1 [II-210],–,< 0.5,< 0.5,–
CS(=O)(=O)Nc1cccc(C(O)C(=O)Nc2nc(-c3c[nH]c4ncccc34)cs2)c1 (stereo not drawn) [II-211],–,< 0.5,< 0.5,–
Nc1cccc(C(O)C(=O)Nc2nc(-c3c[nH]c4ncccc34)cs2)c1 (stereo not drawn) [II-212],–,< 0.5,< 0.5,–
NC(C(=O)Nc1nc(-c2c[nH]c3ncccc23)cs1)c1ccc(F)cc1 (stereo not drawn) [II-213],–,< 0.5,< 0.5,–
N[C@@H](C(=O)Nc1nc(-c2c[nH]c3ncccc23)cs1)c1ccccc1 [II-214],–,< 0.5,< 0.5,–
O=C(Cc1ccccn1)Nc1nc(-c2c[nH]c3ncccc23)cs1 [II-215],–,< 0.5,< 0.5,–
CS(=O)(=O)Nc1cccc(CC(=O)Nc2nc(-c3c[nH]c4c3ccc[n+]4[O-])cs2)c1 [II-216],–,0.5 to 5,–,< 0.5
CS(=O)(=O)NCC(=O)Nc1nc(-c2c[nH]c3ncccc23)cs1 [II-217],–,< 0.5,< 0.5,–
CCS(=O)(=O)NCC(=O)Nc1nc(-c2c[nH]c3ncccc23)cs1 [II-218],–,< 0.5,< 0.5,–

# Now from value to compound:
Ki [1] [µM],Ki [2] [µM],"Ki [3, 4] [µM]",Ki [3] [µM],SMILES
–,< 0.5,< 0.5,–,CS(=O)(=O)Nc1cccc(C(N)C(=O)Nc2nc(-c3c[nH]c4ncccc34)cs2)c1 (stereo not drawn) [II-219]
–,< 0.5,< 0.5,–,CC(C)S(=O)(=O)NCC(=O)Nc1nc(-c2c[nH]c3ncccc23)cs1 [II-220]
–,< 0.5,< 0.5,–,CCS(=O)(=O)C(C)C(=O)Nc1nc(-c2c[nH]c3ncccc23)cs1 (stereo not drawn) [II-221]
–,< 0.5,< 0.5,–,C[C@H](NS(C)(=O)=O)C(=O)Nc1nc(-c2c[nH]c3ncccc23)cs1 [II-222]
–,< 0.5,< 0.5,–,CC(C)[C@H](NS(C)(=O)=O)C(=O)Nc1nc(-c2c[nH]c3ncccc23)cs1 [II-223]
–,0.5 to 5,< 0.5,–,CCCC(C(=O)Nc1nc(-c2c[nH]c3ncccc23)cs1)S(C)(=O)=O (stereo not drawn) [II-224]
–,0.5 to 5,< 0.5,–,CCCC(C(=O)Nc1nc(-c2c[nH]c3ncccc23)cs1)S(=O)(=O)CC (stereo not drawn) [II-225]
–,< 0.5,< 0.5,–,CC(C(=O)Nc1nc(-c2c[nH]c3ncccc23)cs1)S(C)(=O)=O (stereo not drawn) [II-226]
–,< 0.5,< 0.5,–,CC(C)[C@@H](NS(C)(=O)=O)C(=O)Nc1nc(-c2c[nH]c3ncccc23)cs1 [II-227]
–,< 0.5,< 0.5,–,C[C@@H](NS(C)(=O)=O)C(=O)Nc1nc(-c2c[nH]c3ncccc23)cs1 [II-228]
–,< 0.5,< 0.5,–,CS(=O)(=O)N1CCC[C@H]1C(=O)Nc1nc(-c2c[nH]c3ncccc23)cs1 [II-229]
–,< 0.5,< 0.5,–,CS(=O)(=O)N1CCC[C@@H]1C(=O)Nc1nc(-c2c[nH]c3ncccc23)cs1 [II-230]
–,< 0.5,< 0.5,–,CN(CC(=O)Nc1nc(-c2c[nH]c3ncccc23)cs1)S(C)(=O)=O [II-231]
–,< 0.5,< 0.5,–,CS(=O)(=O)N[C@H](COCc1ccccc1)C(=O)Nc1nc(-c2c[nH]c3ncccc23)cs1 [II-232]
–,< 0.5,< 0.5,–,CS(=O)(=O)N[C@@H](COCc1ccccc1)C(=O)Nc1nc(-c2c[nH]c3ncccc23)cs1 [II-233]
–,0.5 to 5,0.5 to 5,–,CCNC(=O)Nc1nc(-c2c[nH]c3ncccc23)cs1 [II-234]
–,0.5 to 5,0.5 to 5,–,O=C(NCCO)Nc1nc(-c2c[nH]c3ncccc23)cs1 [II-235]
–,0.5 to 5,0.5 to 5,–,O=C(Nc1nc(-c2c[nH]c3ncccc23)cs1)N1CCOCC1 [II-236]
–,0.5 to 5,0.5 to 5,–,CN1CCN(C(=O)Nc2nc(-c3c[nH]c4ncccc34)cs2)CC1 [II-237]
–,0.5 to 5,0.5 to 5,–,O=C(Nc1nc(-c2c[nH]c3ncccc23)cs1)N1CCCCC1 [II-238]
–,0.5 to 5,< 0.5,–,O=C(Nc1nc(-c2c[nH]c3ncccc23)cs1)NC1CCC(C(=O)O)CC1 (stereo not drawn) [II-239]
–,0.5 to 5,0.5 to 5,–,CN(C)C(=O)Nc1nc(-c2c[nH]c3ncccc23)cs1 [II-240]
–,0.5 to 5,0.5 to 5,–,O=C(Nc1nc(-c2c[nH]c3ncccc23)cs1)N1CCCC1 [II-241]
–,0.5 to 5,0.5 to 5,–,CC(CN(C)C)NC(=O)Nc1nc(-c2c[nH]c3ncccc23)cs1 (stereo not drawn) [II-242]
–,0.5 to 5,0.5 to 5,–,O=C(Nc1nc(-c2c[nH]c3ncccc23)cs1)N1CCNCC1 [II-243]
–,0.5 to 5,< 0.5,–,CC(C)NC(=O)Nc1nc(-c2c[nH]c3ncccc23)cs1 [II-244]
